# From paper PMC7686313, “Phase 1 study of mTORC1/2 inhibitor sapanisertib (TAK-228) in advanced solid tumours, with an expansion phase in renal, endometrial or bladder cancer” (British Journal of Cancer, 2020)
# Like-named read-outs stand apart in the source and are kept apart here.
# Legend:
# [1] = parameters: method as in PMID 26800393; conditions: advanced haematological malignancies, cited from earlier work
# [2] = tested on: p4EBP1, pS6, pPRAS40 and pNDRG1 (TORC1/2 biomarkers); experiment: Pharmacodynamics in paired tumour biopsies; assay type: in vivo, human; conditions: five patients with paired tumour samples; baseline vs cycle 1, week 2
# Method: (§1) The tissue PK and PD of sapanisertib were investigated in skin and tumour biopsies. During dose escalation, 3-mm core skin biopsies were collected predose and on any day from 8–15 (3 h postdose) of cycle 1 for immunohistochemistry (IHC) assessment of mTORC1 downstream effects (p4EBP1, pS6) and pNDRG1 (Mosaic Laboratories, Lake Forest, CA). […] Archival tumour tissues for assessment of prognostic markers were collected at baseline.
# (§2) During dose-escalation, the PD effect of sapanisertib on downstream effectors of TORC1 (p4EBP1 and pS6) and TORC2 (pPRAS40 and pNDRG1) was measured in skin-tissue biopsies from 88 patients collected at baseline and days 8–15 (3 h postdose) of cycle 1. […] PD data in tumour tissue were limited due to the small number of samples. For the five patients with paired tumour samples available for review (biopsies at baseline and cycle 1, week 2), the levels of p4EBP1, pS6, pPRAS40 and pNDRG1 decreased after sapanisertib treatment (Supplementary Fig. 4).
# [3] = tested on: renal cell carcinoma (RCC); experiment: Tumour response according to RECIST v1.1, expansion phase, RCC; assay type: in vivo, human
# Text: (§3) Patients could be considered for enrolment in one of three disease-specific cohorts: (1) advanced or recurrent endometrial adenocarcinoma with disease progression following ≥1 prior chemotherapy regimen; (2) advanced/metastatic urothelial cancer (carcinoma of the bladder, ureter and/or renal pelvis), progressive after ≥1 prior therapy in the metastatic/unresectable setting; (3) advanced RCC after failure of ≥1 prior antivascular endothelial growth factor therapy with no prior TORC1 inhibitor therapy, or progressed on treatment with TORC1 inhibitor therapy.
# [4] = tested on: p4EBP1, pS6, pPRAS40 and pNDRG1 (TORC1/2 biomarkers); experiment: Pharmacodynamics in skin biopsies (IHC); assay type: in vivo, human; conditions: doses of ≥4 mg; baseline vs days 8–15 (3 h postdose) of cycle 1
# Method: as §1, §2
# [5] = Dose escalation: dose-limiting toxicities and maximum tolerated dose; assay type: in vivo
# Text: This Phase 1, open-label, dose-escalation and expansion study aimed to determine the safety, tolerability and preliminary efficacy of sapanisertib in patients with advanced solid tumours. During dose-escalation, patients received one of four sapanisertib dosing schedules: once daily (QD), once weekly (QW; days 1, 8, 15 and 22), QD for 3 days on/4 days off each week (QD × 3dQW; days 1–3, 8–10, 15–17 and 22–24) and QD for 5 days on/2 days off each week (QD × 5dQW; days 1–5, 8–12, 15–19 and 22–26) in a 28-day cycle with dose escalation based on a modified Fibonacci schema.
# The maximum tolerated dose (MTD) was to be determined in the QD schedule before enrolment of initial single-patient cohorts for the QW and QDx3d QW schedules. […] Subsequent dose cohorts for that schedule included 3–6 patients. […] Once the MTD was identified for each of the dosing schedules, an additional six patients were enrolled to obtain further PK and safety data prior to expansion.
# endometrial cancer = experiment: Tumour response according to RECIST v1.1, expansion phase, endometrial cancer; assay type: in vivo, human; conditions: expansion Endometrial cancer (n = 18)
# Text: as §3
# [6] = expansion RCC TORC1 failure (n = 23)
# [7] = expansion RCC TORC1 naïve (n = 18)
compound,measurement,setting,value
CC(C)n1nc(-c2ccc3oc(N)nc3c2)c2c(N)ncnc21 [Sapanisertib],MTD,[1]; QD dosing,4 mg
same,MTD,[1]; QD × 3dQW,9 mg
same,"Levels of p4EBP1, pS6, pPRAS40 and pNDRG1 in tumour",[2],decreased
same,Best overall response CR,[3]; [6],0 n (%)
same,Best overall response PD,[3]; [6],7 (30) n (%)
same,Best overall response PR,[3]; [6],2 (9) n (%)
same,Best overall response SD < 6 months,[3]; [6],9 (39) n (%)
same,Best overall response SD ≥ 6 months,[3]; [6],5 (22) n (%)
same,CBR (CR + PR + SD ≥ 6 months),[3]; [6],7 (30) n (%)
same,ORR (CR + PR),[3]; [6],2 (9) n (%)
same,Best overall response CR,[3]; [7],1 (6) n (%)
same,Best overall response PD,[3]; [7],5 (28) n (%)
same,Best overall response PR,[3]; [7],3 (17) n (%)
same,Best overall response SD < 6 months,[3]; [7],7 (39) n (%)
same,Best overall response SD ≥ 6 months,[3]; [7],1 (6) n (%)
same,CBR (CR + PR + SD ≥ 6 months),[3]; [7],5 (28) n (%)
same,ORR (CR + PR),[3]; [7],4 (22) n (%)
same,Objective responses persisting for > 16 months,[3]; expansion phase,Four of the seven
same,Duration of complete response (CR),"[3]; expansion, one patient with TORC1 inhibitor−naïve RCC receiving 40 mg QW",16 months
same,"Change in p4EBP1, pS6, pPRAS40 and pNDRG1 in skin",[4],Treatment-related decreases
same,Recommended Phase 2 dose,[5]; QD,5 mg
same,DLTs,[5]; QD 4 mg,Grade 3 hyperglycaemia
same,DLTs,[5]; QD 6 mg,Grade 3 maculo-papular rash; grade 3 diarrhoea; grade 3 asthenia; grade 5 ventricular fibrillation/cardiac arrest
same,DLTs,[5]; QD 7 mg,Grade 3 hyperglycaemia and grade 4 anaemia; grade 3 maculo-papular rash
same,Maximum tolerated dose (MTD),[5]; QD schedule,6 mg
same,DLTs,[5]; QD × 3dQW 9 mg,Grade 3 hypophosphatemia
same,DLTs,[5]; QD × 3dQW 12 mg,Grade 3 stomatitis and grade 3 dehydration; grade 3 asthenia
same,DLTs,[5]; QD × 3dQW 16 mg,Grade 3 stomatitis
same,DLTs,[5]; QD × 3dQW 20 mg,Grade 3 stomatitis; grade 3 stomatitis
same,Maximum tolerated dose (MTD),[5]; QD × 3dQW schedule,9 mg
same,DLTs,[5]; QD × 5dQW 13 mg,Grade 3 fatigue; grade 3 asthenia; grade 3 stomatitis
same,Maximum tolerated dose (MTD),[5]; QD × 5dQW schedule,7 mg
same,Recommended Phase 2 dose,[5]; QW,30 mg
same,DLTs,[5]; QW 40 mg,Grade 3 dry mouth and fatigue; grade 3 asthenia
same,Maximum tolerated dose (MTD),[5]; QW schedule,40 mg
same,Best overall response CR,endometrial cancer,0 n (%)
same,Best overall response PD,endometrial cancer,8 (44) n (%)
same,Best overall response PR,endometrial cancer,1 (6) n (%)
same,Best overall response SD < 6 months,endometrial cancer,8 (44) n (%)
same,Best overall response SD ≥ 6 months,endometrial cancer,0 n (%)
same,CBR (CR + PR + SD ≥ 6 months),endometrial cancer,1 (6) n (%)
same,ORR (CR + PR),endometrial cancer,1 (6) n (%)
